US10144756B2, “Stable solid forms of regadenoson” (Euticals S.p.A., priority 2013, dated 2018)
Read-outs that look alike come from different tables or passages of the source.

How the values were obtained:
[1] = HPLC stability of solid forms stored at 90% RH and 20-25° C.; settings: for HPLC stability data (chromatographic purity): 90% RH and 20-25° C.
[2] = U.S. Pat. No. 8,106,183 / WO2012149196, cited from earlier work
[3] = Thermal treatment of polymorphic form A at 190-200° C. (prior-art route to amorphous form); format: physicochemical; settings: thermal treatment at 190-200° C.
Experimental: In U.S. Pat. No. 8,106,183 the method of preparation of an amorphous form of Regadenoson is described by heating polymorphic form A at 200° C.; this solid state, differently by polymorphic forms A-C, was not described by the authors by an X-ray diffraction spectrum in order to identify possible characteristic halo-peaks (broad peaks). This amorphous form was prepared according to U.S. Pat. No. 8,106,183 by heating the polymorphic form A over the melting point value of this substance (that for polymorphic form A is 194.5° C.). This method is not industrially applicable and leads to the formation of several side products. […] To the best of our knowledge, this is the only described method for the preparation of amorphous Regadenoson.

[4] = HPLC stability of solid forms stored at 80° C. in inert atmosphere; settings: for HPLC stability data (chromatographic purity): 80° C. in inert atmosphere
[5] = not given; remark: listed apart in the source

CNC(=O)c1cnn(-c2nc(N)c3ncn([C@@H]4O[C@H](CO)[C@@H](O)[C@H]4O)c3n2)c1 [Form A, (1-{9-[(4S,2R,3R,5R)-3,4-dihydroxy-5-(hydroxymethyl)oxolan-2-yl]-6-aminopurin-2yl}pyrazol-4-yl)-N-methylcarboxamide, reference compound]
HPLC stability data (chromatographic purity) ([1]; time 0 hours): 99.5%
HPLC stability data (chromatographic purity) ([1]; time 96 hours): 99.5%
stability of the solid form as described in the literature ([2]; listed as Regadenoson Form A): more stable than polymorphs B and C
decrease of chromatographic purity [3]: about 30%
change in the color of the sample ([3]; form A is white before): the color changes to brown
HPLC stability data (chromatographic purity) ([4]; time 0 hours): 99.5%
HPLC stability data (chromatographic purity) ([4]; time 72 hours): 99.5%
HPLC stability data (chromatographic purity) ([4]; time 96 hours): 99.5%

CNC(=O)c1cnn(-c2nc(N)c3ncn([C@@H]4O[C@H](CO)[C@@H](O)[C@H]4O)c3n2)c1 [Form D]
stability of the solid form as described in the literature [2]: stable under inert conditions

CNC(=O)c1cnn(-c2nc(N)c3ncn([C@@H]4O[C@H](CO)[C@@H](O)[C@H]4O)c3n2)c1 [Form E]
HPLC stability data (chromatographic purity) (0 h): 99.6%
HPLC stability data (chromatographic purity) (72 h): 99.4%
HPLC stability data (chromatographic purity) (96 h): 99.6%
HPLC stability data (chromatographic purity) ([5]; 0 h): 99.6%
HPLC stability data (chromatographic purity) ([5]; 96 h): 99.7%

CNC(=O)c1cnn(-c2nc(N)c3ncn([C@@H]4O[C@H](CO)[C@@H](O)[C@H]4O)c3n2)c1 [Form F, (1-{9-[(4S,2R,3R,5R)-3,4-dihydroxy-5-(hydroxymethyl)oxolan-2-yl]-6-aminopurin-2yl}pyrazol-4-yl)-N-methylcarboxamide]
HPLC stability data (chromatographic purity) (0 h): 99.8%
HPLC stability data (chromatographic purity) (72 h): 99.7%
HPLC stability data (chromatographic purity) (96 h): 99.7%
HPLC stability data (chromatographic purity) ([5]; 0 h): 99.8%
HPLC stability data (chromatographic purity) ([5]; 96 h): 99.8%

CNC(=O)c1cnn(-c2nc(N)c3ncn([C@@H]4O[C@H](CO)[C@@H](O)[C@H]4O)c3n2)c1 [Form G, (1-{9-[(4S,2R,3R,5R)-3,4-dihydroxy-5-(hydroxymethyl)oxolan-2-yl]-6-aminopurin-2yl}pyrazol-4-yl)-N-methylcarboxamide]
HPLC stability data (chromatographic purity) (0 h): 99.8%
HPLC stability data (chromatographic purity) (72 h): 99.8%
HPLC stability data (chromatographic purity) (96 h): 99.8%
HPLC stability data (chromatographic purity) ([5]; 0 h): 99.8%
HPLC stability data (chromatographic purity) ([5]; 96 h): 99.8%

CNC(=O)c1cnn(-c2nc(N)c3ncn([C@@H]4O[C@H](CO)[C@@H](O)[C@H]4O)c3n2)c1 [Halo Amorphous, (1-{9-[(4S,2R,3R,5R)-3,4-dihydroxy-5-(hydroxymethyl)oxolan-2-yl]-6-aminopurin-2yl}pyrazol-4-yl)-N-methylcarboxamide]
HPLC stability data (chromatographic purity) ([1]; time 0 hours): 99.7%
HPLC stability data (chromatographic purity) ([1]; time 96 hours): 99.7%
formation of degradation products ([1]; exposed to moisture, 25° C./90% RH up to 96 hours): does not give origin to degradation products
HPLC stability data (chromatographic purity) ([4]; time 0 hours): 99.7%
HPLC stability data (chromatographic purity) ([4]; time 72 hours): 99.7%
HPLC stability data (chromatographic purity) ([4]; time 96 hours): 99.7%
stability to heating ([4]; 80° C., protected atmosphere / dry conditions, up to 96 hours): stable to the heating
formation of degradation products ([4]; dry conditions, 80° C. up to 96 hours): does not give origin to degradation products

CNC(=O)c1cnn(-c2nc(N)c3ncn([C@@H]4O[C@H](CO)[C@@H](O)[C@H]4O)c3n2)c1 [Polymorph C]
stability of the solid form as described in the literature [2]: unstable at high temperatures
